Laboratory results from patent US8999326B2, “Oncotherapeutic application of inhibitors of high-affinity glucose transporters” (University of South Florida, priority 2007, dated 2015).

Each compound was assayed on H1299, H1650 and MCF-7 cells (assay: BrdU proliferation assay, statements for all three cell lines). Conditions: 5 μM cisplatin, 5 μM paclitaxel or 10 μM gefitinib.
Type: cell-based, human
Method: FIGS. 5A-5C show the combined effect of chemotherapeutic drugs and Glut-1 antibody on cell proliferation. H1299 (FIG. 5A), H1650 (FIG. 5B), and MCF-7 (FIG. 5C) cells were grown on chamber slides as described above and treated either with cisplatin, paclitaxel or iressa in presence or absence of Glut-1 antibody (0.1 mg) for 18 hours. The proliferation was measured by BrdU incorporation.
MCF-7, H1299 and H1650 cells were plated onto poly-D-lysine (Sigma) coated 8-well glass chamber slides (10,000 cells per well). The cells were incubated with 0.1 mg/ml Glut-1 monoclonal antibody for 18 hours. The cells were fixed and stained using 5-Bromo-2′ deoxyuridine labeling and detection kit from ROCHE according to manufacturer's protocol.
Experiments were done to evaluate whether anti-Glut-1 antibody could synergize with standard chemotherapeutic agents to inhibit proliferation of H1299, H1650 and MCF-7. The cells were plated on chamber slides and incubated in presence of chemotherapeutic agents (5 μM cisplatin, 5 μM paclitaxel or 10 μM geftinib) in absence or presence of 0.1 mg/ml anti-Glut-1 antibody.

| SMILES | effect of drug alone on proliferation |
| --- | --- |
| N.N.[Cl][Pt][Cl] [cisplatin] | significant decrease in proliferation |
| COc1cc2ncnc(Nc3ccc(F)c(Cl)c3)c2cc1OCCCN1CCOCC1 [gefitinib] | significant decrease in proliferation |
| CC(=O)O[C@H]1C(=O)[C@@]2(C)[C@H]([C@H](OC(=O)c3ccccc3)[C@]3(O)C[C@H](OC(=O)[C@H](O)[C@@H](NC(=O)c4ccccc4)c4ccccc4)C(C)=C1C3(C)C)[C@]1(OC(C)=O)CO[C@@H]1C[C@@H]2O [paclitaxel] | significant decrease in proliferation |
